This is an account of results in ChEMBL document CHEMBL3526101, “Discovery and characterization of novel, potent, and selective cytochrome P450 2J2 inhibitors” (Drug Metab Dispos, 2013).

Series [1] can be described thus: Metabolic stability in human liver microsomes at 1 uM after 30 mins by LC-MS/MS method. It is filed as ADME. Conditions: read-out: Stability. Background: Liver microsomes are vesicles of endoplasmic reticulum, rich in cytochrome P450 enzymes.
A further series addresses Cytochrome P450 2D6 (Homo sapiens, UniProt P10635).
In the next series the target is Cytochrome P450 2C9 (Homo sapiens, UniProt P11712).
Cytochrome P450 2C9, sequence (P11712 whole entry): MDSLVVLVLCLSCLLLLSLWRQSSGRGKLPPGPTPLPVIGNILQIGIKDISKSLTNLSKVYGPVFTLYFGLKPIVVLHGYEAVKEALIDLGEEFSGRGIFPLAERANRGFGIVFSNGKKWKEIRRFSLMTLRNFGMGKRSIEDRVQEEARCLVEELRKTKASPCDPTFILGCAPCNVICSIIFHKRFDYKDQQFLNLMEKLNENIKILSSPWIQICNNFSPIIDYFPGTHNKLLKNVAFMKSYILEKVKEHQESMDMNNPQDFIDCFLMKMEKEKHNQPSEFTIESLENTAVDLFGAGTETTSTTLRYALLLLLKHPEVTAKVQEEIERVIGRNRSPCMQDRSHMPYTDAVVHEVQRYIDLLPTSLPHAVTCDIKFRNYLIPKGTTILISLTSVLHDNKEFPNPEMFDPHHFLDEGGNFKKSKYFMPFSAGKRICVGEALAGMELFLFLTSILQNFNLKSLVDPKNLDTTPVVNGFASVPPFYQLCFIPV
The target in a further series is Cytochrome P450 2C19 (Homo sapiens, UniProt P33261).
Cytochrome P450 2C19, sequence (P33261 whole entry): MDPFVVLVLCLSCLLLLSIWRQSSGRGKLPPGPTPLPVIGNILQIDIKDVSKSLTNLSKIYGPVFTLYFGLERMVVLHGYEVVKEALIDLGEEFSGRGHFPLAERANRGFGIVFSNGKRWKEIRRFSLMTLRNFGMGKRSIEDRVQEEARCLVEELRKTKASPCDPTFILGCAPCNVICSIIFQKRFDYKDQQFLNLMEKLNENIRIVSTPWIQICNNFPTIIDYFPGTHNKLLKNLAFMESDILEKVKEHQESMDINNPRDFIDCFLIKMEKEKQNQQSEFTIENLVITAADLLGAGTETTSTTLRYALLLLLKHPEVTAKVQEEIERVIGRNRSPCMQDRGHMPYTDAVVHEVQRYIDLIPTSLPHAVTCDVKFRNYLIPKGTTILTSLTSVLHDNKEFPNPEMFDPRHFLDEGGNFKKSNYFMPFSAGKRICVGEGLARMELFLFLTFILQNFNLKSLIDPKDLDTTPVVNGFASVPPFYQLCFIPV
In a further series the target is T1, Cytochrome P450 1A2 (Homo sapiens, UniProt P05177).
T1 sequence (P05177 whole entry): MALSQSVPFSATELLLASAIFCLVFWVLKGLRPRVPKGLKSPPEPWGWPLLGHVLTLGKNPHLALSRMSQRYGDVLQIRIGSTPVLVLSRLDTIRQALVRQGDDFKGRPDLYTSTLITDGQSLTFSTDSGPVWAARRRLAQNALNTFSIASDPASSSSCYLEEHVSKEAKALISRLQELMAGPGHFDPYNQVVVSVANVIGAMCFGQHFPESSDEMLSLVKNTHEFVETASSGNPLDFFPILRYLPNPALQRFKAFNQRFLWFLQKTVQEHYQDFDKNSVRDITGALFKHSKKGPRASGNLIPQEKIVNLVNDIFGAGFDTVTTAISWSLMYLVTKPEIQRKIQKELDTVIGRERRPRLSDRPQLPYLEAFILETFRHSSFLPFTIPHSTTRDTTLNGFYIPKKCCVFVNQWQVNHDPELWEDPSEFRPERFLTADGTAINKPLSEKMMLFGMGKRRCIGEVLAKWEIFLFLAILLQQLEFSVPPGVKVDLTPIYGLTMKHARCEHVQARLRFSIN

For series [2], the target named is T2, Cytochrome P450 2J2 (Homo sapiens, UniProt P51589).
T2 sequence (P51589 whole entry): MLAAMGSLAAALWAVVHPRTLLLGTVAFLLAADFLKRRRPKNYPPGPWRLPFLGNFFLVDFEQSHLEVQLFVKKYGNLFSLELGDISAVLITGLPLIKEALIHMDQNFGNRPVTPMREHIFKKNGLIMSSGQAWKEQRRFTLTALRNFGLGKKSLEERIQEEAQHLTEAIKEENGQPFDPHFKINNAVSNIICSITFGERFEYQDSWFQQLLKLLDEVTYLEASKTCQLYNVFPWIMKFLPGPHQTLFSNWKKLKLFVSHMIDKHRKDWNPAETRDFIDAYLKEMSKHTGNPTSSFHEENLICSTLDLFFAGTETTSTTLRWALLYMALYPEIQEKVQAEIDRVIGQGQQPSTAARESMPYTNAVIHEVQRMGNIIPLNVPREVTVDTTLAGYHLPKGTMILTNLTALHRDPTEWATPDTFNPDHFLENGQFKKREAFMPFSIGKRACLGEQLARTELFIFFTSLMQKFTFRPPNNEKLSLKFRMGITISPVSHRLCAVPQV

For the next series, the target named is Cytochrome P450 3A4 (Homo sapiens, UniProt P08684).
Cytochrome P450 3A4, sequence (P08684 whole entry): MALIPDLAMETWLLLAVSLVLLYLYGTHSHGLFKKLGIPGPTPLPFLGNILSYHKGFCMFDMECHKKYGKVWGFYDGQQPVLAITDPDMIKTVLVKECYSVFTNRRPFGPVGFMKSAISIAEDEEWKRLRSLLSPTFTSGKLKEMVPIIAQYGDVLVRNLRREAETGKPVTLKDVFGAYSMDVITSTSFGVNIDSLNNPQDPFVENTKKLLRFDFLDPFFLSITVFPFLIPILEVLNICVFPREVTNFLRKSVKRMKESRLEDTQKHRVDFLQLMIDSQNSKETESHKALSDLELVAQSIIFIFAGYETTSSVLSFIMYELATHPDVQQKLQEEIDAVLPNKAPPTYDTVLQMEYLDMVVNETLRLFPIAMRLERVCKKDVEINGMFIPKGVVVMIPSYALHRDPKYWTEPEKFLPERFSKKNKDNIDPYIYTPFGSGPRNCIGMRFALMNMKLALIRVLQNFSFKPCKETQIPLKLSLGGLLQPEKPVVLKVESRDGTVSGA
The target of series [3] is T2, Cytochrome P450 2J2. As to the kind of experiment: Drug metabolism assessed as human recombinant CYP2J2-mediated intrinsic clearance assessed per pmol protein after 30 mins. Type of series: ADME. Conditions: recombinant enzyme, 0.5 h.
Series [4] is described as follows: Tmax in human. Type of series: ADME, organism-based. Conditions: in vivo.
Substrate in series [5]: COc1ccc(CCN2CCC(Nc3nc4ccccc4n3Cc3ccc(F)cc3)CC2)cc1
As to the kind of experiment: Activity of human recombinant CYP2J2 assessed as compound O-demethylation. It is filed as ADME.

Cytochrome P450 2D6, sequence (P10635 whole entry): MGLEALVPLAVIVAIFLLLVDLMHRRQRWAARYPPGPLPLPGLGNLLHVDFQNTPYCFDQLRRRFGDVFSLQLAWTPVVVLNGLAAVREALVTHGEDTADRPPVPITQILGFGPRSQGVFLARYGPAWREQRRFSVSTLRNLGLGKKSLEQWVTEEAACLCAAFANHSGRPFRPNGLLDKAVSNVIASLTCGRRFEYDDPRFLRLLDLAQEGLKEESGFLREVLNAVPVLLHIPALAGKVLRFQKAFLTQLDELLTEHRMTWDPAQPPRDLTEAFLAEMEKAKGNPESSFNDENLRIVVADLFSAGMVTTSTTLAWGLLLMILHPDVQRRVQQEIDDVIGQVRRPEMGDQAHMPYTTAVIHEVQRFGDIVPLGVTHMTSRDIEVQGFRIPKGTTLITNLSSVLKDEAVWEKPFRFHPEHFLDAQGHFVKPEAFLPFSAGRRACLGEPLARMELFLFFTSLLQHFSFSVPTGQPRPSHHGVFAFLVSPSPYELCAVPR

A word on the IC50: it is the concentration needed to halve the response being measured. Take `CCCc1nc2c(C)cc(-c3nc4ccccc4n3C)cc2n1Cc1ccc(-c2ccccc2C(=O)O)cc1`: the remaining at 0.5 h, 1 µM in [1] was 97.7%. Further, the IC50 on Cytochrome P450 2D6 was over 50 µM; against Cytochrome P450 2C9, 4.78 µM; on Cytochrome P450 2C19 it was over 50 µM; on Cytochrome P450 1A2, over 50 µM.
`CN1CCC[C@@H]1Cc1c[nH]c2ccc(CCS(=O)(=O)c3ccccc3)cc12`: the IC50 on Cytochrome P450 2J2 [2] was over 50 µM.
For the molecule `COc1ccc(CCN(C)CCCC(C#N)(c2ccc(OC)c(OC)c2)C(C)C)cc1OC` (stereo unspecified), the IC50 against Cytochrome P450 1A2 was over 50 µM.
Turning to `CC(=O)Nc1ccc(O)cc1` [ACETAMINOPHEN], the IC50 against Cytochrome P450 2J2 [2] is over 50 µM.
Molecule `C=CCc1ccccc1OCC(O)CNC(C)C` (stereo unspecified) [ALPRENOLOL] showed a half-inhibitory concentration (IC50) against Cytochrome P450 2J2 [2] of over 50 µM.
In the case of `CCN(CC)Cc1cc(Nc2ccnc3cc(Cl)ccc23)ccc1O` [AMODIAQUINE], the IC50 at Cytochrome P450 3A4 was over 50 µM.
In turn, `CC1(C)S[C@@H]2[C@H](NC(=O)[C@H](N)c3ccc(O)cc3)C(=O)N2[C@H]1C(=O)O` [AMOXICILLIN] gave an IC50 at Cytochrome P450 2J2 [2] of over 50 µM.
For the molecule `COc1ccc(CCN2CCC(Nc3nc4ccccc4n3Cc3ccc(F)cc3)CC2)cc1` [ASTEMIZOLE], the CL on Cytochrome P450 2J2 [3] came to 3.05 µL/min.
With `CCc1oc2ccccc2c1C(=O)c1cc(Br)c(O)c(Br)c1` [BENZBROMARONE], the values for the half-inhibitory concentration (IC50) on Cytochrome P450 2J2 [2], on Cytochrome P450 2D6 and on Cytochrome P450 1A2 were 4.26 µM, over 50 µM and 33.1 µM, respectively.
Regarding `CC(C)COCC(CN(Cc1ccccc1)c1ccccc1)N1CCCC1` (stereo unspecified) [BEPRIDIL], the 50% inhibitory concentration (IC50) against Cytochrome P450 2J2 [2] is 11.5 µM; against Cytochrome P450 2D6 it was over 50 µM; against Cytochrome P450 1A2, over 50 µM.
Consider `NC(=O)N1c2ccccc2C=Cc2ccccc21` [CARBAMAZEPINE], for which the 50% inhibitory concentration (IC50) at Cytochrome P450 2J2 [2] was over 50 µM.
Regarding `CO/N=C(\C(=O)N[C@@H]1C(=O)N2C(C(=O)O)=C(CSc3nc(=O)c(=O)[nH]n3C)CS[C@H]12)c1csc(N)n1` [CEFTRIAXONE], inhibition on Cytochrome P450 2J2 [2] was half-maximal at 27.4 µM (IC50).
On to `C[C@@H]1C[C@H]2[C@@H]3CCC4=CC(=O)C=C[C@]4(C)[C@@]3(F)[C@@H](O)C[C@]2(C)[C@@]1(O)C(=O)CO` [DEXAMETHASONE], for which the 50% inhibitory concentration (IC50) against Cytochrome P450 2J2 [2] was over 50 µM.
Regarding `COc1ccc2c(c1)[C@]13CCCC[C@@H]1[C@H](C2)N(C)CC3` [DEXTROMETHORPHAN], the IC50 at Cytochrome P450 2J2 [2] is over 50 µM.
Regarding `CC[C@H]1OC(=O)[C@H](C)[C@@H](O[C@H]2C[C@@](C)(OC)[C@@H](O)[C@H](C)O2)[C@H](C)[C@@H](O[C@@H]2O[C@H](C)C[C@H](N(C)C)[C@H]2O)[C@](C)(O)C[C@@H](C)C(=O)[C@H](C)[C@@H](O)[C@]1(C)O` [ERYTHROMYCIN], the concentration for half-maximal inhibition (IC50) against Cytochrome P450 2J2 [2] is over 50 µM.
A word on the Tmax: it is the time from dosing to the highest level. With `Fc1ccc(C(c2ccc(F)cc2)N2CCN(C/C=C/c3ccccc3)CC2)cc1` [FLUNARIZINE], the time of peak concentration (Tmax) in [4] amounted to 4 h. Also, in series [1], the remaining at 0.5 h, 1 µM is 83.8%. In addition, the IC50 on Cytochrome P450 2C9, against Cytochrome P450 2C19 and at Cytochrome P450 1A2 was over 50 µM throughout.
As for `CN(C)CCCN1c2ccccc2CCc2ccccc21` [IMIPRAMINE], the 50% inhibitory concentration (IC50) at Cytochrome P450 2J2 [2] was over 50 µM.
On Cytochrome P450 2J2 [2], `Cc1c(OCC(F)(F)F)ccnc1C[S+]([O-])c1nc2ccccc2[nH]1` (stereo unspecified) [LANSOPRAZOLE] showed an IC50 of over 50 µM.
As to `Cc1cccc(Nc2ccccc2C(=O)O)c1C` [MEFENAMIC ACID], the concentration for half-maximal inhibition (IC50) against Cytochrome P450 2J2 [2] was over 50 µM.
On to `COCCc1ccc(OCC(O)CNC(C)C)cc1` (stereo unspecified) [METOPROLOL], for which the IC50 against Cytochrome P450 3A4 and against Cytochrome P450 1A2 was over 50 µM throughout.
As to `COCC(=O)O[C@]1(CCN(C)CCCc2nc3ccccc3[nH]2)CCc2cc(F)ccc2[C@@H]1C(C)C` [MIBEFRADIL], the IC50 against Cytochrome P450 2J2 [2] was 2.14 µM; against Cytochrome P450 2D6 it was 0.84 µM; at Cytochrome P450 2C9, 28.4 µM; on Cytochrome P450 2C19, 1.32 µM; at Cytochrome P450 1A2, over 50 µM.
On to `CCn1cc(C(=O)O)c(=O)c2cc(F)c(N3CCNCC3)cc21` [NORFLOXACIN], for which the 50% inhibitory concentration (IC50) at Cytochrome P450 2C9 and on Cytochrome P450 1A2 was over 50 µM each time.
Molecule `CCCc1nc(C(C)(C)O)c(C(=O)O)n1Cc1ccc(-c2ccccc2-c2nnn[nH]2)cc1` [OLMESARTAN] yielded an IC50 against Cytochrome P450 2J2 [2] of over 50 µM.
With `COc1ccc2[nH]c([S+]([O-])Cc3ncc(C)c(OC)c3C)nc2c1` (stereo unspecified) [OMEPRAZOLE], the concentration for half-maximal inhibition (IC50) against Cytochrome P450 2J2 [2] was over 50 µM.
`CN1C(C(=O)Nc2ccccn2)=C(O)c2ccccc2S1(=O)=O` [PIROXICAM]: the IC50 on Cytochrome P450 2J2 [2] was over 50 µM.
`C[C@]12C=CC(=O)C=C1CC[C@@H]1[C@@H]2[C@@H](O)C[C@@]2(C)[C@H]1CC[C@]2(O)C(=O)CO` [PREDNISOLONE] registered a half-inhibitory concentration (IC50) against Cytochrome P450 2J2 [2] of over 50 µM.
Consider `CN[C@H]1CC[C@@H](c2ccc(Cl)c(Cl)c2)c2ccccc21` [SERTRALINE], for which the concentration for half-maximal inhibition (IC50) against Cytochrome P450 2J2 [2] was 18.5 µM; against Cytochrome P450 2D6 it was 2.88 µM; against Cytochrome P450 2C9 it was over 50 µM; on Cytochrome P450 2C19 it was 22.5 µM; against Cytochrome P450 1A2, 29.7 µM.
In turn, `Nc1ccc(S(=O)(=O)Nc2ccnn2-c2ccccc2)cc1` [SULFAPHENAZOLE] yielded a 50% inhibitory concentration (IC50) against Cytochrome P450 2J2 [2] of over 50 µM.
For `C[C@]12C=CC(=O)C=C1CC[C@H]1[C@@H]3C[C@@H](O)[C@](O)(C(=O)CO)[C@@]3(C)C[C@H](O)[C@@]12F` [TRIAMCINOLONE], the IC50 at Cytochrome P450 2J2 [2] is 9.47 µM; at Cytochrome P450 2D6, over 50 µM; on Cytochrome P450 2C9, over 50 µM; at Cytochrome P450 1A2, over 50 µM.

B1: Cytochrome P450 2J2 (Homo sapiens) (protein)
chain: T2 sequence (P51589 whole entry)
Broadly, the Km is the substrate concentration at which the rate is half of its maximum. By Vmax is commonly meant the rate approached at saturating substrate. As for B1, in series [5], the Km turned out to be 0.09 µM and the Vmax was found to be 0.000339 µmol/min.
